We go through seven compounds from article PMC4441817 (Bioorganic & medicinal chemistry letters, 2012).

The subject of one series is GGTase II. Conditions: cited from earlier work.
For series [1] the following is noted: cited from earlier work.
Series [2] deals with T1, geranylgeranyl transferase II (GGTase II) (Homo sapiens, UniProt P53611+Q92696).
T1 sequence (Q92696 1-567): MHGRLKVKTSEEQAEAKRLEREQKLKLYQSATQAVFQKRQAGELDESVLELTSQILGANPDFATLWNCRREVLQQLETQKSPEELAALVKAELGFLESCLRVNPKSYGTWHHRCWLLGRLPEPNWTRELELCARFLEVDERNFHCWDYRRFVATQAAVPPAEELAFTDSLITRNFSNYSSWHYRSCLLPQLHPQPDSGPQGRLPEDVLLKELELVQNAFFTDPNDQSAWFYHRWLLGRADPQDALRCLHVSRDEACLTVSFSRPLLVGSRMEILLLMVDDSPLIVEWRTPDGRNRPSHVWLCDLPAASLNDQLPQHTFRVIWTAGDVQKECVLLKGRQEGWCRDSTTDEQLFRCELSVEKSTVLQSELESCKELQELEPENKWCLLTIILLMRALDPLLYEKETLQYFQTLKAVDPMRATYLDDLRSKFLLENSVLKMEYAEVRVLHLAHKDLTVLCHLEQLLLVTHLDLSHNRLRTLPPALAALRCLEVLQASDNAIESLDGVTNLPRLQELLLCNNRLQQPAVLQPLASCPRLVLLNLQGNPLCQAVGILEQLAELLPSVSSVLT
T1 sequence (P53611 1-331): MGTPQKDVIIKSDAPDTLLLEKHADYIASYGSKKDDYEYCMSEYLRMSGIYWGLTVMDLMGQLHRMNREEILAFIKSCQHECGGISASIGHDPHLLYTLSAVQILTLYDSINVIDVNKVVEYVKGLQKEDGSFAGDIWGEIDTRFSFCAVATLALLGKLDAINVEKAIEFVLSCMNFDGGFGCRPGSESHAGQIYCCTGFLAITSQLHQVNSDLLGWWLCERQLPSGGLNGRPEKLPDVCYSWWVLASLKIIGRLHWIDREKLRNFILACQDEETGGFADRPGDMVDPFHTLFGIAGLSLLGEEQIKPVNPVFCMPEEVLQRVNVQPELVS
It is filed as biochemical. Conditions: recombinant enzyme.

The subject of series [3] is human myeloma RPMI-8226 cell line. As to the kind of experiment: cells. Conditions: RPMI-8226, 48 h, read-out: MTT IC50.
Series [4] has as its system protein farnesylation or geranylgeranylation. As to the kind of experiment: Cellular assays of protein farnesylation or geranylgeranylation. It is filed as cell-based. Conditions: data not shown.
Series [5] concerns human myeloma RPMI-8226 cell line. Conditions: RPMI-8226 cells, 48 hr incubation.

In the case of `O=C(O)C(O)(Cc1cccnc1)P(=O)(O)O` (stereo not drawn) [Compound 3-PEHPC], in the series on GGTase II, the “selectivity for GGTase II (in words)” value was “good selectivity for GGTase II”. In series [1], the “concentrations required to observe cellular effects” value is listed as “millimolar concentrations are required”.
For orientation: IC50 means the concentration at which inhibition is half-maximal. On to `CC(C)=CCC/C(C)=C/CC/C(C)=C/CCC(C)=CCn1cc(CC(P(=O)([O-])[O-])P(=O)([O-])[O-])nn1.[Na+].[Na+].[Na+].[Na+]` [Compound 11e], for which the “activity as a GGTase II inhibitor (in words)” value in series [2] is recorded as “most active compound”. Moreover, the IC50 in series [3] turned out to be 1000 µM.
For the compound `CC(C)=CCCC(C)=CCn1cc(CC(P(=O)([O-])[O-])P(=O)([O-])[O-])nn1.[Na+].[Na+].[Na+].[Na+]` [Compound 11c], the “activity as a GGTase II inhibitor (in words)” value in series [2] is “no activity”. In addition, in series [3], the IC50 is over 1000 µM.
The matching figures for `CC(C)=CCC/C(C)=C/CCC(C)=CCn1cc(CC(P(=O)([O-])[O-])P(=O)([O-])[O-])nn1.[Na+].[Na+].[Na+].[Na+]` [Compound 11d]: “modest activity” and 900 µM.
For `O=P(O)(O)C(Cc1cn(Cc2ccccc2)nn1)P(=O)(O)O` [Compound 11a], in series [3], the IC50 is over 1000 µM.
With `O=P([O-])([O-])C(Cc1cn(Cc2ccc3ccccc3c2)nn1)P(=O)([O-])[O-].[Na+].[Na+].[Na+].[Na+]` [Compound 11b], the “effect on protein farnesylation or geranylgeranylation” value in series [4] was “does not affect protein farnesylation or geranylgeranylation”. Besides, in series [5], the “cytotoxic potency in the MTT assay (in words)” value is on record as “most potent”. Besides, the IC50 in series [3] is 200 µM.
As for `O=C(O)C(O)(Cc1cnc2ccccn12)P(=O)(O)O` (single isomer, unassigned; (+)) [(+)-3-IPEHPC], in the series on GGTase II, the “potency relative to 3-PEHPC” value is reported as “more potent than 3-PEHPC”, the “type of inhibition with respect to GGPP” value is on record as “mixed-type inhibitor” and the “type of inhibition with respect to Rab” value is given as “uncompetitive inhibitor”.
